In patent US8293272B2, “Solid pharmaceutical preparation containing levothyroxine and/or liothyronine salts” (Globopharm Pharmazeutische Produktions-und …, priority 2003, dated 2012):

Assay: accelerated storage stability at 40° C. and 75% relative humidity (active ingredient content)

Row | activity of the original quantity (160 μg levothyroxine-Na preparation, water factor 0.3, 40° C. and 75% relative humidity, 3 months) [% by weight] | residual activity (160 μg levothyroxine-Na preparation, water factors 0.4 to 0.5, 40° C. and 75% relative humidity, 3 months) [% by weight] | Structure (SMILES) | employed quantity still active (combination preparation containing 25 μg liothyronine-Na, water factor 0.25, one month) [% by weight] | content remaining (combination preparation containing 25 μg liothyronine-Na, water factor 0.4 to 0.5, 1 month) [%]
1 | 95.2 | 90.7 | N[C@@H](Cc1cc(I)c(Oc2cc(I)c(O)c(I)c2)c(I)c1)C(=O)[O-].[Na+] [Levothyroxine-Na] | – | –
2 | – | – | N[C@@H](Cc1cc(I)c(Oc2ccc(O)c(I)c2)c(I)c1)C(=O)[O-].[Na+] [liothyronine-Na] | 97.7 | 87.2
